Reference: PMC7321108, “1-Hydroxyanthraquinones Containing Aryl Substituents as Potent and Selective Anticancer Agents” (Molecules, 2020)
Read-outs that look alike come from different tables or passages of the source. One block for each compound: values may come before it.

How the values were obtained:
SNB-19 cells [1] = test: Cell cycle analysis by flow cytometry (Hoechst 33342), SNB-19; format: cell-based, human; settings: SNB-19, treated at GI50 concentration, 24 h
Protocol: Due to the fact that the implementation of the antitumor potential of the currently existing antitumor agents is carried out by acting on various biological targets, at the next stage we performed the cell cycle analysis and DNA synthesis. Cell cycle analysis of 1-hydroxy-4-phenyl-9,10-anthraquinone 13, 1-hydroxy-4-(2,3-dimethoxyphenyl)-9,10- anthraquinone 16, 1-hydroxy-4-(furan-3-yl)-9,10-anthraquinone 23 and 1-hydroxy- 2-(2,3-dimethoxyphenyl)-9,10-anthraquinone 28 against SNB-19 cells for 24 h produced interesting results. After examining the data for compounds 13 and 16 (Table 3, Figure 4C,D), good number of cells are distributed in S phase, i.e., initiated DNA replication mechanism and also in G0/G1 phase, i.e., initial phase of cell cycle. G1 and G2 are the growth phases in cell cycle analysis, whereas S phase is a synthetic phase wherein DNA replication and DNA synthesis take place. The 2-aryl substituted compound 28 initiated the G0/G1 phase in analogy with doxorubicin and mitomycin. […] Further, compounds play a vital role in controlling the regulation of Sub-G1 and G2/M phases. Some difference in the mechanism of operation of 4-aryl substituted 13,16 and 2-aryl substituted 9,10-anthraquinones 28 has been observed during the progression of cell cycle like: S phase was highly disturbed by 13; G0/G1 phase was highly disturbed by 28. […] This observation can be explained by the influence on the cell repair systems that respond to the intercalation of compounds in DNA. […] Further, mitoxantrone promotes the arrest of S phase of cell cycle.
(§1) For cell cycle analysis cells were seeded in 6-well plates (30,000 per plate) and incubate for adhesion for 24 h. […] Cells were washed with PBS twice, harvested, pelleted and resuspended in 0.5 mL of PBS. For staining the Hoechst 33342 Ready Flow Reagent (Invitrogen) was used according to the instruction. CytoFLEX flow cytometer (Beckman Coulter) was used for analysis. The results are presented as a percentage of cell population standing in different stages of the cell cycle.

SNB-19 cells [2] = test: DNA synthesis investigation (BrdU/PI flow cytometry), SNB-19; format: cell-based, human; settings: SNB-19, treated at GI50 concentration, 24 h, BrdU 30 min
DU-145 cells [3] = test: Cell cycle analysis by flow cytometry (Hoechst 33342), DU-145; format: cell-based, human; settings: DU-145, treated at GI50 concentration, 24 h
Protocol: We have carried out flow cytometric study of compounds 13, 16 and the isomeric compound 25 (Table 4, Figure 4G,H). Concentrations of 16 and 25 were taken as 5.4 and 14.5 μM, respectively, as per cytotoxic studies (Table 1). After examining the data for 13 (Figure 4G, Table 4), a good number of cells are arrested in Sub-G1, G0/G1 and S phase. Biosynthetic activity is very high during Sub-G1 phase; this is probably achieved by enhancing of apoptosis. The isomeric molecule 25 arrest G0/G1 and S phases, i.e., affecting the DNA synthesis/replication mechanism. Similarly, for 25 a different pattern is observed, i.e., variations at S and G2/M phases were observed, in comparison to the control. […] Some difference in the mechanism of operation of 13 and 25 has been observed during the progression of cell cycle like: Sub-G1 phase was highly disturbed by 13 and S and G0/G1 phases were highly disturbed by 25.
as §1

DU-145 cells [4] = test: DNA synthesis investigation (BrdU/PI flow cytometry), DU-145; format: cell-based, human; settings: DU-145, treated at GI50 concentration, 24 h, BrdU 30 min
Protocol: Cell cycle analysis was performed by Flow Cytometry using BrdU and PI staining [63]. For this experiment cells were seeded in 6-well plates (30,000 per plate) and incubate for adhesion for 24 h. […] For the next step the BrdU stock was added at a final concentration of 30 µM and cells were incubated for 30 min. Cells were washed with PBS, harvested using trypsine and resuspended at 0.3 mL of PBS. Permeabilization of cell membrane was performed as follows: 0.7 mL of ice-cold 100% EtOH was added into each sample, mixed gently and incubate at 4 °C for 1 h. Cells were pelleted and supernatant was removed completely. Then 0.5 mL of 2 N HCl/0.5% Triton X-100 was added and samples were incubated 30 min at room temperature. Cells were pelleted again, supernatant was removed. The pellet was resuspended in 0.5 mL of 0.1 M sodium tetraborate for 2 min and cells were pelleted again, washed with 150 µL of PBS/1% BSA and resuspended in 50 µM 0.5% Tween 20/1% BSA/PBS. […] After that the samples were resuspended in 0.5 mL of PBS containing 10 mg/mL RNAse A and 20 mg/mL PI. Samples were incubated at room temperature for 30 min and analyzed immediately or store at 4 °C. CytoFLEX flow cytometer (Beckman Coulter) was used for analysis. The results are presented as a percentage of cell population standing in DNA synthesis process.

[5] = system: SNB-19 glioblastoma cells; test: MTT cytotoxicity assay, SNB-19; format: cell-based; settings: Homo sapiens, 72 h incubation, mean ± SEM of three experiments, read-out: Cytotoxicity (GI50) against SNB-19
Protocol: (§2) The cytotoxicity of the synthesized series of 4-substituted 5, 13–17, 22, 23, 2-substituted 25–30 and 2,4-disubstituted 1-hydroxy-9,10-anthraquinones 33–38, 40–45 was evaluated against a panel of seven different human cancer cell lines (glioblastoma cancer cells, human prostate cancer cells, T-cellular human leucosis, breast cancer cells) and also a normal cell line of hTERT-immortalized lung fibroblasts, using conventional MTT assay. Doxorubicin (DOX) is clinically used to treat cancer as drug in world and have a very wide antitumor spectrum. That we use them as positive control compounds. The cytotoxicity was determined by measuring the concentration inhibiting human tumor cell viability by 50% (GI50).
(§3) The human cancer cells of the glioblastoma (U-87MG, SNB-19, T98G), prostate cancer cell line (LNCAP, DU-145), the cells of T-cellular human leucosis (MT-4) and human breast cancer cells (MDA-MB-231) were used in this study. The cells were cultured in the RPMI-1640 medium that contained 10% embryonic calf serum, L-glutamine (2 mmol/L), gentamicin ([…]) and lincomycin (30 mkg/mL) in a CO2 incubator at 37 °C. The tested compounds were dissolved in DMSO and added to the cellular culture at the required concentrations. Three wells were used for each concentration. The cells which were incubated without the compounds were used as a control. Cells were placed on 96-well microliter plates and cultivated at 37 °C in 5% CO2/95% air for 72 h. The cell viability was assessed through an MTT [3-(4,5-dimethylthiazol-2-yl)-[…]-2H-tetrazolium bromide] conversion assay. A total of 1% MTT was added to each well. Four hours later, DMSO was added and mixed for 15 min. Optical density (D) of the samples was measured on a BioRad 680 multi-well spectrophotometer (USA) at the wavelength of 450 nm. The 50% cytotoxic dose GI50) of each compound (i.e., the compound concentration that causes the death of 50% of cells in a culture, or decreases the optical density twice as compared to the control wells) was calculated from the data obtained. Statistical processing of the results was performed using the Microsoft Excel-2007, […] 6.0 and GraphPad Prism 5.0 programs. The results are given as an average value ± a deviation from the average (mean ± standard error of the mean (SEM)). Reliability of differences (p) was estimated using the Student t test. The differences with p < 0.05 were considered as reliable. The experimental results are given as the data average values obtained from three independently conducted experiments.

[6] = system: U-87MG glioblastoma cells; test: MTT cytotoxicity assay, U-87MG; format: cell-based; settings: Homo sapiens, 72 h incubation, mean ± SEM of three experiments, read-out: Cytotoxicity (GI50) against U-87MG
Protocol: as §2, §3

T98G glioblastoma cells = test: MTT cytotoxicity assay, T98G; format: cell-based; settings: Homo sapiens, 72 h incubation, mean ± SEM of three experiments, read-out: Cytotoxicity (GI50) against T98G
Protocol: as §2, §3

[7] = system: LNCAP prostate cancer cells; test: MTT cytotoxicity assay, LNCAP; format: cell-based, human; settings: Homo sapiens, LNCaP, 72 h, 72 h incubation, mean ± SEM of three experiments, read-out: Cytotoxicity (GI50) against LNCAP
Protocol: as §2, §3

[8] = system: DU-145 prostate cancer cells; test: MTT cytotoxicity assay, DU-145; format: cell-based, human; settings: 72 h incubation, mean ± SEM of three experiments, read-out: Cytotoxicity (GI50) against DU-145
Protocol: as §2, §3

[9] = system: MT-4 cells of T-cellular human leucosis; test: MTT cytotoxicity assay, MT-4; format: cell-based; settings: MT4, 72 h incubation, mean ± SEM of three experiments, read-out: Cytotoxicity (GI50) against MT-4
Protocol: as §2, §3

[10] = system: MDA-MB-231 breast cancer cells; test: MTT cytotoxicity assay, MDA-MB-231; format: cell-based; settings: Homo sapiens, 72 h incubation, mean ± SEM of three experiments, read-out: Cytotoxicity (GI50) against MDA-MB-231
Protocol: as §2, §3

[11] = MTT cytotoxicity assay, normal hTERT-immortalized lung fibroblasts; format: cell-based; settings: human, hTERT-immortalized lung fibroblasts (normal cell line), 72 h incubation, mean ± SEM of three experiments, read-out: Cytotoxicity (GI50) against hTERT Lung Fibroblasts
Protocol: as §2, §3

SMILES: CO[C@@]12[C@H](COC(N)=O)C3=C(C(=O)C(C)=C(N)C3=O)N1C[C@@H]1N[C@@H]12 [Mitomycin C, reference compound]
Population (% Cell Distribution) G0/G1 (SNB-19 cells [1]): 63.6%
Population (% Cell Distribution) G2/M (SNB-19 cells [1]): 4.1%
Population (% Cell Distribution) S (SNB-19 cells [1]): 25.2%
Population (% Cell Distribution) Sub-G1 (SNB-19 cells [1]): 0.0%
Population (% Cell Distribution) Super-G2 (SNB-19 cells [1]): 7.0%
Population (% Cell Distribution) DNA Synthesis (SNB-19 cells [2]): 7.44%
Population (% Cell Distribution) G0/G1 (DU-145 cells [3]): 50.3%
Population (% Cell Distribution) G2/M (DU-145 cells [3]): 16.3%
Population (% Cell Distribution) S (DU-145 cells [3]): 13.2%
Population (% Cell Distribution) Sub-G1 (DU-145 cells [3]): 0.1%
Population (% Cell Distribution) Super-G2 (DU-145 cells [3]): 20.2%
Population (% Cell Distribution) DNA Synthesis (DU-145 cells [4]): 5.74%

melting point: 174.1 °C (dec.)
SMILES: O=C1c2ccccc2C(=O)c2c1ccc(-c1ccccc1)c2O [Compound 25, 1-Hydroxy-2-phenylanthracene-9,10-dione]
GI50 [5]: 6.8 ± 1.19 µM
GI50 [6]: > 100 µM
GI50 (T98G glioblastoma cells): 21.5 ± 0.92 µM
GI50 [7]: 32.1 ± 8.55 µM
GI50 ([8]; Homo sapiens, DU-145, 72 h): 14.5 ± 0.73 µM
GI50 [9]: > 100 µM
GI50 [10]: 16.5 ± 0.88 µM
GI50 at 72 h [11]: 44.6 ± 2.46 µM
Population (% Cell Distribution) G0/G1 (DU-145 cells [3]): 32.3%
Population (% Cell Distribution) G2/M (DU-145 cells [3]): 7.4%
Population (% Cell Distribution) S (DU-145 cells [3]): 32.4%
Population (% Cell Distribution) Sub-G1 (DU-145 cells [3]): 25.9%
Population (% Cell Distribution) Super-G2 (DU-145 cells [3]): 2.0%
Population (% Cell Distribution) DNA Synthesis (DU-145 cells [4]): 20.27%

SMILES: COc1cccc2c1C(=O)c1c(O)c3c(c(O)c1C2=O)C[C@@](O)(C(=O)CO)C[C@@H]3O[C@H]1C[C@H](N)[C@H](O)[C@H](C)O1 [DOX, Doxorubicin, reference compound]
GI50 [5]: 7.62 ± 0.69 µM
GI50 [6]: 6.11 ± 0.15 µM
GI50 (T98G glioblastoma cells): 4.5 ± 0.46 µM
GI50 [7]: 2.11 ± 0.4 µM
GI50 [8]: 6.61 ± 0.34 µM
GI50 [9]: 0.2 ± 0.04 µM
GI50 [10]: 7.9 ± 0.51 µM
GI50 at 72 h [11]: 2.2 ± 0.58 µM
Population (% Cell Distribution) G0/G1 (SNB-19 cells [1]): 49.6%
Population (% Cell Distribution) G2/M (SNB-19 cells [1]): 19.6%
Population (% Cell Distribution) S (SNB-19 cells [1]): 23.2%
Population (% Cell Distribution) Sub-G1 (SNB-19 cells [1]): 1.9%
Population (% Cell Distribution) Super-G2 (SNB-19 cells [1]): 5.7%
Population (% Cell Distribution) DNA Synthesis (SNB-19 cells [2]): 11.81%
Population (% Cell Distribution) G0/G1 (DU-145 cells [3]): 48.8%
Population (% Cell Distribution) G2/M (DU-145 cells [3]): 15.9%
Population (% Cell Distribution) S (DU-145 cells [3]): 28.1%
Population (% Cell Distribution) Sub-G1 (DU-145 cells [3]): 0.3%
Population (% Cell Distribution) Super-G2 (DU-145 cells [3]): 6.8%
Population (% Cell Distribution) DNA Synthesis (DU-145 cells [4]): 10.76%
